Assay: Weights, CBC, blood chemistry and signs of toxicity, Table S1 sheet PD-2 (infected Aotus, twice a day for seven days)
Format: in vivo, Aotus lemurinus lemurinus
Settings: oral 10 mg/kg twice a day/7 days, 26047 Female (ITM1)
Protocol: Laboratory bred Aotus lemurinus lemurinus monkeys (0.75–0.89 kg) were maintained as described. […] Blood samples were collected before the treatment started (t = 0), 0.05 h, 0.5 h, 1 h, 2 h, 6 h, 24 h, 48 h, and 6, 12 and 18 days after the first dose from each monkey and processed as described below. Pharmacokinetic parameters were calculated using PKSolver. For efficacy studies, Aotus monkeys were inoculated intravenously with 5×10^6 parasites of the FVO strain of P. falciparum in an approved treatment protocol. […] Parasitaemia was determined by Giemsa-stained thick blood smears prepared daily from the marginal ear vein [41]. Blood samples were collected from each monkey and transferred to tubes containing lithium heparin, centrifuged and both plasma and blood cells were frozen at −80 °C until analysis. Animals received a physical examination and blood chemistry profiles were monitored after treatment as described previously. Any monkey not responding appropriately to treatment was cured of its infection with mefloquine (40 mg kg^−1). […] The day of clearance is defined as the first of three consecutive days in which the thick blood films are parasite negative. The day of recrudescence is the first of three consecutive days of positive thick blood films after a period of clearance. Suppression is defined as a transient decrease in the parasite count post-treatment without clearance.

Nc1nc2c(CN3CC(O)C(CO)C3)c[nH]c2c(=O)[nH]1 (centres unmarked) [BCX4945, 4′-deaza-1′-aza-2′-deoxy-1′-(9-methylene)-Immucillin-G]
Lymphocytes (%) (day 12): 68.4%
Lymphocytes (x 103/ul) (day 12): 11.5 x 103/ul
Mean Corpuscular Hemoglobin (day 12): 28.3 pg
Mean Corpuscular Volume (day 12): 79.5 fL
Mean Hemoglobin Content (day 12): 35.5 g/dL
Mean Platelet Volume (day 12): 9.9 fL
Monocytes (%) (day 12): 10.3%
Monocytes (x 103/ul) (day 12): 1.7 x 103/ul
Platelets (day 12): 338000 µL⁻¹
Red Cell Distribution Width (day 12): 13.6%
Reticulocytes (day 12): 2.2%
WEIGHT (day 12): 845 g
Blood Urea Nitrogen (day 15): 11.4 mg/dL
Creatine (day 15): 0.638 mg/dL
Erythrocytes (day 15): 4.51e+06 µL⁻¹
Glutamate Pyruvate Transaminase (day 15): 21.4 U/L
Granulocytes (%) (day 15): 7.5%
Granulocytes (x 103/ul) (day 15): 1 x 103/ul
Hematocrit (day 15): 36.3%
Hemoglobin (day 15): 12.9 g/dL
Leucocytes (day 15): 13100 µL⁻¹
Lymphocytes (%) (day 15): 81.3%
Lymphocytes (x 103/ul) (day 15): 10.7 x 103/ul
Mean Corpuscular Hemoglobin (day 15): 28.7 pg
Mean Corpuscular Volume (day 15): 80.5 fL
Mean Hemoglobin Content (day 15): 35.6 g/dL
Mean Platelet Volume (day 15): 10.4 fL
Monocytes (x 103/ul) (day 15): 1.5 x 103/ul
Platelets (day 15): 164000 µL⁻¹
Red Cell Distribution Width (day 15): 17.5%
Reticulocytes (day 15): 4.2%
WEIGHT (day 15): 839 g
Blood Urea Nitrogen (day 18): 16.4 mg/dL
Creatine (day 18): 0.5 mg/dL
Erythrocytes (day 18): 4.39e+06 µL⁻¹
Glutamate Pyruvate Transaminase (day 18): 15.3 U/L
Granulocytes (%) (day 18): 7.8%
Granulocytes (x 103/ul) (day 18): 1.7 x 103/ul
Hematocrit (day 18): 35.7%
Hemoglobin (day 18): 12.3 g/dL
Leucocytes (day 18): 21900 µL⁻¹
Lymphocytes (%) (day 18): 82.9%
Lymphocytes (x 103/ul) (day 18): 18.2 x 103/ul
Mean Corpuscular Hemoglobin (day 18): 28 pg
Mean Corpuscular Volume (day 18): 81.2 fL
Mean Hemoglobin Content (day 18): 34.4 g/dL
Mean Platelet Volume (day 18): 12.4 fL
Monocytes (%) (day 18): 9.3%
Monocytes (x 103/ul) (day 18): 2 x 103/ul
Platelets (day 18): 115000 µL⁻¹
Red Cell Distribution Width (day 18): 16.7%
Reticulocytes (day 18): 3.1%
WEIGHT (day 18): 860 g
Erythrocytes (day 25): 4.98e+06 µL⁻¹
Granulocytes (%) (day 25): 4.7%
Granulocytes (x 103/ul) (day 25): 0.8 x 103/ul
Hematocrit (day 25): 40.8%
Hemoglobin (day 25): 13.7 g/dL
Leucocytes (day 25): 16900 µL⁻¹
Lymphocytes (%) (day 25): 90%
Lymphocytes (x 103/ul) (day 25): 15.2 x 103/ul
Mean Corpuscular Hemoglobin (day 25): 27.4 pg
Mean Corpuscular Volume (day 25): 81.8 fL
Mean Hemoglobin Content (day 25): 33.6 g/dL
Mean Platelet Volume (day 25): 11.8 fL
Monocytes (%) (day 25): 5.3%
Monocytes (x 103/ul) (day 25): 0.9 x 103/ul
Platelets (day 25): 158000 µL⁻¹
Red Cell Distribution Width (day 25): 17.4%
Reticulocytes (day 25): 1.9%
WEIGHT (day 25): 843 g
Blood Urea Nitrogen (day -10): 15.35 mg/dL
Creatine (day -10): 0.531 mg/dL
Erythrocytes (day -10): 6.12e+06 µL⁻¹
Glutamate Pyruvate Transaminase (day -10): 20.1 U/L
Granulocytes (%) (day -10): 6.5%
Granulocytes (x 103/ul) (day -10): 1.5 x 103/ul
Hematocrit (day -10): 47.5%
Hemoglobin (day -10): 17.3 g/dL
Leucocytes (day -10): 23800 µL⁻¹
Lymphocytes (%) (day -10): 87.8%
Lymphocytes (x 103/ul) (day -10): 20.9 x 103/ul
Mean Corpuscular Hemoglobin (day -10): 28.3 pg
Mean Corpuscular Volume (day -10): 77.6 fL
Mean Hemoglobin Content (day -10): 36.4 g/dL
Mean Platelet Volume (day -10): 11 fL
Monocytes (%) (day -10): 5.7%
Monocytes (x 103/ul) (day -10): 1.4 x 103/ul
Platelets (day -10): 266000 µL⁻¹
Red Cell Distribution Width (day -10): 11%
Reticulocytes (day -10): 2.1%
WEIGHT (day -10): 824 g
